ChEMBL document CHEMBL1909046, “DrugMatrix in vitro pharmacology data”

Tests used:
[1] = molecular target: C-C chemokine receptor type 2 (Homo sapiens, UniProt P41597); type: cell membranes, CHO-K1, Membrane; conditions: cho-k1; note: in other assays of this panel Not Active means under 50% inhibition at 10 µM
D(4) dopamine receptor = molecular target: T1, D(4) dopamine receptor (Homo sapiens, UniProt P21917); assay: DRUGMATRIX: Dopamine D4.2 radioligand binding (ligand: [3H] Spiperone); type: cell membranes, CHO-K1, Membrane; conditions: cho-k1; Not Active = under 50% inhibition at 10 µM
T1 sequence (P21917 whole entry): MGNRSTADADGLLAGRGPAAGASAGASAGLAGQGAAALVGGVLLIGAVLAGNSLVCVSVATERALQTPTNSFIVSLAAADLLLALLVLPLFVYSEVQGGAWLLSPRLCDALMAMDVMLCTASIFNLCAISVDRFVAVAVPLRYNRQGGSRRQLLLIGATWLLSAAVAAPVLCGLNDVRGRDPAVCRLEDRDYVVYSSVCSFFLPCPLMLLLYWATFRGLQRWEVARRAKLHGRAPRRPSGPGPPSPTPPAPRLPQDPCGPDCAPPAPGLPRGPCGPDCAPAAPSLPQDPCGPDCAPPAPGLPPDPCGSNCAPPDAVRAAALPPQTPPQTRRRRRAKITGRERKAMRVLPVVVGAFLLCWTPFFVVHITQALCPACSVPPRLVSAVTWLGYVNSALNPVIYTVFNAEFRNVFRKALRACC

Melanocortin receptor 5 = Melanocortin receptor 5 (Homo sapiens, UniProt P33032); type: cell membranes, HEK293, Membrane; conditions: hek293; note: in other assays of this panel Not Active means under 50% inhibition at 10 µM
Sequence of Melanocortin receptor 5 (P33032 whole entry): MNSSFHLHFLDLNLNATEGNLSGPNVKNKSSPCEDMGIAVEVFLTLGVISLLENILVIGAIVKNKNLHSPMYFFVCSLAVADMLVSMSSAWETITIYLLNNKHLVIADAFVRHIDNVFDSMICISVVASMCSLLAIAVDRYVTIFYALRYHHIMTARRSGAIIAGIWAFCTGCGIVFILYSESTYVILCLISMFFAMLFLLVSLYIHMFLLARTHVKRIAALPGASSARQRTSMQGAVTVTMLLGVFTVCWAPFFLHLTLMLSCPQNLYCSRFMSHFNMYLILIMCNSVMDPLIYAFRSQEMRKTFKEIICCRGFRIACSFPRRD

[2] = molecular target: Receptor tyrosine-protein kinase erbB-2 (Homo sapiens, UniProt P04626); assay: biochemical; type: cell-based, Insect cells; conditions: insect cells;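 note: inhibition of HER2 kinase enzyme activity, measured with Poly(Glu:Tyr) as the phosphorylation substrate; in other assays of this panel Not Active means under 50% inhibition at 10 µM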
Cytochrome P450 1A2 = molecular target: T2, Cytochrome P450 1A2 (Homo sapiens, UniProt P05177); conditions: bti-tn-5b1-4; note: in other assays of this panel Not Active means under 50% inhibition at 10 µM
T2 sequence (P05177 whole entry): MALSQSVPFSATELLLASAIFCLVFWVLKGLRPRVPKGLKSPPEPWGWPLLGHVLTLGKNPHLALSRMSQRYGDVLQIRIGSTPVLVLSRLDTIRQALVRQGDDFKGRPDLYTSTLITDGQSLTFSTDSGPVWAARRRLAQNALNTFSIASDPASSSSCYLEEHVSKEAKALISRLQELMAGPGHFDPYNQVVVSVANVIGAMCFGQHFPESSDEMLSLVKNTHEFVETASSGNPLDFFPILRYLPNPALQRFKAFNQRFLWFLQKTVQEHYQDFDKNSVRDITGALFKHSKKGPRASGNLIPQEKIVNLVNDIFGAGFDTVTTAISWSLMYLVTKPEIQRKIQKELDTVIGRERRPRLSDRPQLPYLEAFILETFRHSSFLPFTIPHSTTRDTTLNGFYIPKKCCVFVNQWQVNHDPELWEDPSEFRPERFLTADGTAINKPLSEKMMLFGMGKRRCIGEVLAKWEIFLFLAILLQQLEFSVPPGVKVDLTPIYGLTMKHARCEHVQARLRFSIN

Cytochrome P450 2C9 = Cytochrome P450 2C9 (Homo sapiens, UniProt P11712); conditions: bti-tn-5b1-4; note: in other assays of this panel Not Active means under 50% inhibition at 10 µM
Sequence of Cytochrome P450 2C9 (P11712 whole entry): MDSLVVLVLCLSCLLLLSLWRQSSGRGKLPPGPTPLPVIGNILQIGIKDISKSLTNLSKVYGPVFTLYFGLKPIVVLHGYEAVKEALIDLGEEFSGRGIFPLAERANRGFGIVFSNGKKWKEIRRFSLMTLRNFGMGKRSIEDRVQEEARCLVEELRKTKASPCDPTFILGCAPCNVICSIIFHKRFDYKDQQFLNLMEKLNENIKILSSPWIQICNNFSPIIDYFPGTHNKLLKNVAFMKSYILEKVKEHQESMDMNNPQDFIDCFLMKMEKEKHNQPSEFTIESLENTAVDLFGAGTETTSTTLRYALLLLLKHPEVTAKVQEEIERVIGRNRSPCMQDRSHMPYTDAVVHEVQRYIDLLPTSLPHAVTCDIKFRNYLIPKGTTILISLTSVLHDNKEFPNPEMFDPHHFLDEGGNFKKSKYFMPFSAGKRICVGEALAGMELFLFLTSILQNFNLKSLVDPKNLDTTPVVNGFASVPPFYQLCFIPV

Cytochrome P450 3A4 = Cytochrome P450 3A4 (Homo sapiens, UniProt P08684); conditions: bti-tn-5b1-4; note: in other assays of this panel Not Active means under 50% inhibition at 10 µM
Sequence of Cytochrome P450 3A4 (P08684 whole entry): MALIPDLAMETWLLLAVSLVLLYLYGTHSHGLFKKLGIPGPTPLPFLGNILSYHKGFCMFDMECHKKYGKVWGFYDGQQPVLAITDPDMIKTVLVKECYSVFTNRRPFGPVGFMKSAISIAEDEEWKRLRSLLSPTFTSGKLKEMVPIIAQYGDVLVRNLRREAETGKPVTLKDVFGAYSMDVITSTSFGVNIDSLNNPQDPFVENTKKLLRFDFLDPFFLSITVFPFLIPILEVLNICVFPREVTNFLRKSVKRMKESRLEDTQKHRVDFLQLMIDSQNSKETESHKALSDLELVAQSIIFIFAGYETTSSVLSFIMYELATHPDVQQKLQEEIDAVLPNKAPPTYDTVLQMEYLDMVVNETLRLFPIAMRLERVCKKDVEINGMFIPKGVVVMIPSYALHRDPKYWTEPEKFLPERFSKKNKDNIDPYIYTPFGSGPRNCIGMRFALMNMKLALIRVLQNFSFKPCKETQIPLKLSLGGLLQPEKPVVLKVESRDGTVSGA

Sequence of C-C chemokine receptor type 2 (P41597 whole entry): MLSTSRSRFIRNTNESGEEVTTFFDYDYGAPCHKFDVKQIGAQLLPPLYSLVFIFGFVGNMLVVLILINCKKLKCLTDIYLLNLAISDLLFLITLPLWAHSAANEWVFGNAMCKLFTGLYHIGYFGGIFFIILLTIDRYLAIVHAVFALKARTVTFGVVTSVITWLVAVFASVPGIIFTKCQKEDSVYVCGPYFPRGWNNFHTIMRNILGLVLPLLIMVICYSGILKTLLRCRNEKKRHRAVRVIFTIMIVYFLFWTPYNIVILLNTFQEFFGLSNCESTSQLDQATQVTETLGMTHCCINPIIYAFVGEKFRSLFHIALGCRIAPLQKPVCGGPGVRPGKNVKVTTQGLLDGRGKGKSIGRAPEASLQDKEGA

CCOC(=O)[C@H](CCc1ccccc1)N[C@@H](C)C(=O)N1CCC[C@H]1C(=O)O
Not Active: IC50 [1] | IC50 (D(4) dopamine receptor) | IC50 (Melanocortin receptor 5) | IC50 [2] | IC50 (Cytochrome P450 1A2) | Ki (Cytochrome P450 1A2) | IC50 (Cytochrome P450 2C9) | Ki (Cytochrome P450 2C9) | IC50 (Cytochrome P450 3A4) | Ki (Cytochrome P450 3A4)

POLYVINYL ALCOHOL
Not Active: IC50 [1] | Ki [1] | IC50 (D(4) dopamine receptor) | Ki (D(4) dopamine receptor) | IC50 (Melanocortin receptor 5) | Ki (Melanocortin receptor 5) | IC50 [2] | Ki [2] | IC50 (Cytochrome P450 1A2) | Ki (Cytochrome P450 1A2) | IC50 (Cytochrome P450 2C9) | Ki (Cytochrome P450 2C9) | IC50 (Cytochrome P450 3A4) | Ki (Cytochrome P450 3A4)

CCC[C@@H]1C[C@@H](C(=O)N[C@@H]([C@H]2O[C@H](SC)[C@H](O)[C@@H](O)[C@H]2O)[C@H](C)Cl)N(C)C1 [CLINDAMYCIN]
Not Active: IC50 [1] | IC50 (D(4) dopamine receptor) | IC50 (Melanocortin receptor 5) | IC50 [2]

CN(Cc1cnc2nc(N)nc(N)c2n1)c1ccc(C(=O)N[C@@H](CCC(=O)O)C(=O)O)cc1 [METHOTREXATE]
Not Active: IC50 [1] | IC50 (D(4) dopamine receptor) | IC50 (Melanocortin receptor 5) | IC50 [2] | IC50 (Cytochrome P450 1A2) | Ki (Cytochrome P450 1A2) | IC50 (Cytochrome P450 3A4) | Ki (Cytochrome P450 3A4)

CO[C@@]1(NC(=O)CSCC#N)C(=O)N2C(C(=O)O)=C(CSc3nnnn3C)CS[C@@H]21 [CEFMETAZOLE]
Not Active: IC50 [1] | IC50 (D(4) dopamine receptor) | IC50 (Melanocortin receptor 5) | IC50 [2] | IC50 (Cytochrome P450 1A2) | Ki (Cytochrome P450 1A2) | IC50 (Cytochrome P450 2C9) | Ki (Cytochrome P450 2C9) | IC50 (Cytochrome P450 3A4) | Ki (Cytochrome P450 3A4)

C[C@@H]1CC[C@H]2[C@@H](C)C(=O)O[C@@H]3O[C@@]4(C)CC[C@@H]1[C@]32OO4 [ARTEMISININ]
Not Active: IC50 [1] | IC50 (D(4) dopamine receptor) | IC50 (Melanocortin receptor 5) | IC50 [2]

CC(C(=O)O)c1ccc(CC2CCCC2=O)cc1 (stereo unspecified) [LOXOPROFEN]
Not Active: IC50 [1] | IC50 (D(4) dopamine receptor) | IC50 (Melanocortin receptor 5) | IC50 [2] | IC50 (Cytochrome P450 1A2) | Ki (Cytochrome P450 1A2) | IC50 (Cytochrome P450 2C9) | Ki (Cytochrome P450 2C9) | IC50 (Cytochrome P450 3A4) | Ki (Cytochrome P450 3A4)

CCCCCC[C@H]1C(=O)O[C@H](C)[C@H](NC(=O)c2cccc(NC=O)c2O)C(=O)O[C@@H](C)[C@@H]1OC(=O)CC(C)C [ANTIMYCIN A]
Not Active: IC50 [1] | IC50 (D(4) dopamine receptor) | IC50 (Melanocortin receptor 5) | IC50 [2] | IC50 (Cytochrome P450 1A2) | Ki (Cytochrome P450 1A2) | IC50 (Cytochrome P450 2C9) | Ki (Cytochrome P450 2C9) | IC50 (Cytochrome P450 3A4) | Ki (Cytochrome P450 3A4)

C#C[C@]1(O)CC[C@H]2[C@@H]3CCc4cc(O)ccc4[C@H]3CC[C@@]21C [ETHINYL ESTRADIOL]
Not Active: IC50 [1] | IC50 (D(4) dopamine receptor) | IC50 (Melanocortin receptor 5) | IC50 [2] | IC50 (Cytochrome P450 1A2) | Ki (Cytochrome P450 1A2) | IC50 (Cytochrome P450 2C9) | Ki (Cytochrome P450 2C9) | IC50 (Cytochrome P450 3A4) | Ki (Cytochrome P450 3A4)

CC[C@H]1OC(=O)[C@H](C)[C@@H](O[C@H]2C[C@@](C)(OC)[C@@H](O)[C@H](C)O2)[C@H](C)[C@@H](O[C@@H]2O[C@H](C)C[C@H](N(C)C)[C@H]2O)[C@](C)(O)C[C@@H](C)CN(C)[C@H](C)[C@@H](O)[C@]1(C)O [AZITHROMYCIN]
Not Active: IC50 [1] | IC50 (D(4) dopamine receptor) | IC50 (Melanocortin receptor 5) | IC50 [2] | IC50 (Cytochrome P450 1A2) | Ki (Cytochrome P450 1A2) | IC50 (Cytochrome P450 2C9) | Ki (Cytochrome P450 2C9)

COc1ccc2cc(CCC(C)=O)ccc2c1 [NABUMETONE]
Not Active: IC50 [1] | IC50 (D(4) dopamine receptor) | IC50 (Melanocortin receptor 5) | IC50 [2] | IC50 (Cytochrome P450 2C9) | Ki (Cytochrome P450 2C9) | IC50 (Cytochrome P450 3A4) | Ki (Cytochrome P450 3A4)

COc1ccccc1OCC(O)CO (stereo unspecified) [GUAIFENESIN]
Not Active: IC50 [1] | IC50 (D(4) dopamine receptor) | IC50 (Melanocortin receptor 5) | IC50 [2]

O=C(c1ccccc1Cl)N1CCC(Cc2ccccc2)CC1
Not Active: IC50 [1] | IC50 (D(4) dopamine receptor) | IC50 (Melanocortin receptor 5) | IC50 [2] | IC50 (Cytochrome P450 1A2) | Ki (Cytochrome P450 1A2) | IC50 (Cytochrome P450 3A4) | Ki (Cytochrome P450 3A4)

C/C=C\c1ccc(O)c(OC)c1 [ISOEUGENOL]
Not Active: IC50 [1] | IC50 (D(4) dopamine receptor) | IC50 (Melanocortin receptor 5) | IC50 [2]

CCOC(=O)C1=C(C)NC(C)=C(C(=O)OC)C1c1cccc(Cl)c1Cl (stereo unspecified) [FELODIPINE]
Not Active: IC50 [1] | IC50 (D(4) dopamine receptor) | IC50 (Melanocortin receptor 5) | IC50 [2]

Cc1cn[nH]c1 [FOMEPIZOLE]
Not Active: IC50 [1] | IC50 (D(4) dopamine receptor) | IC50 (Melanocortin receptor 5) | IC50 [2]

CN1C(=O)CN=C(c2ccccc2)c2cc(Cl)ccc21 [DIAZEPAM]
Not Active: IC50 [1] | IC50 (D(4) dopamine receptor) | IC50 (Melanocortin receptor 5) | IC50 [2]

N[C@@H](Cc1ccc(F)cc1)C(=O)O
Not Active: IC50 [1] | IC50 (D(4) dopamine receptor) | IC50 (Melanocortin receptor 5) | IC50 [2]

NC[C@H]1O[C@H](O[C@H]2[C@H](O)[C@@H](O[C@H]3O[C@H](CO)[C@@H](O)[C@H](N)[C@H]3O)[C@H](N)C[C@@H]2N)[C@H](O)[C@@H](O)[C@@H]1O [KANAMYCIN]
Not Active: IC50 [1] | IC50 (D(4) dopamine receptor) | IC50 (Melanocortin receptor 5) | IC50 [2] | IC50 (Cytochrome P450 2C9) | Ki (Cytochrome P450 2C9) | IC50 (Cytochrome P450 3A4) | Ki (Cytochrome P450 3A4)

CCc1oc2ccccc2c1C(=O)c1cc(Br)c(O)c(Br)c1 [BENZBROMARONE]
Not Active: IC50 [1] | IC50 (D(4) dopamine receptor) | IC50 (Melanocortin receptor 5) | IC50 [2] | IC50 (Cytochrome P450 1A2) | Ki (Cytochrome P450 1A2) | IC50 (Cytochrome P450 3A4) | Ki (Cytochrome P450 3A4)

CC(=O)O[C@]1(C(C)=O)CC[C@H]2[C@@H]3C=C(C)C4=CC(=O)CC[C@]4(C)[C@H]3CC[C@@]21C [MEGESTROL ACETATE]
Not Active: IC50 [1] | IC50 (D(4) dopamine receptor) | IC50 (Melanocortin receptor 5) | IC50 [2] | IC50 (Cytochrome P450 1A2) | Ki (Cytochrome P450 1A2) | IC50 (Cytochrome P450 3A4) | Ki (Cytochrome P450 3A4)

CC(C)C[C@H]1C(=O)N2CCC[C@H]2[C@]2(O)O[C@](NC(=O)[C@@H]3C=C4c5cccc6[nH]c(Br)c(c56)C[C@H]4N(C)C3)(C(C)C)C(=O)N12 [BROMOCRIPTINE]
Not Active: IC50 [1] | IC50 (D(4) dopamine receptor) | IC50 (Melanocortin receptor 5) | IC50 [2] | IC50 (Cytochrome P450 1A2) | Ki (Cytochrome P450 1A2) | IC50 (Cytochrome P450 2C9) | Ki (Cytochrome P450 2C9)

Cc1cnc(C(=O)NCCc2ccc(S(=O)(=O)NC(=O)NC3CCCCC3)cc2)cn1 [GLIPIZIDE]
Not Active: IC50 [1] | IC50 (D(4) dopamine receptor) | IC50 (Melanocortin receptor 5) | IC50 [2]

O=C(O)c1cccnc1 [NIACIN]
Not Active: IC50 [1] | IC50 (D(4) dopamine receptor) | IC50 (Melanocortin receptor 5) | IC50 [2] | IC50 (Cytochrome P450 1A2) | Ki (Cytochrome P450 1A2) | IC50 (Cytochrome P450 3A4) | Ki (Cytochrome P450 3A4)

COc1cc(CNC(=O)CCCC/C=C/C(C)C)ccc1O [CAPSAICIN]
Not Active: IC50 [1] | IC50 (D(4) dopamine receptor) | IC50 (Melanocortin receptor 5) | IC50 [2] | IC50 (Cytochrome P450 2C9) | Ki (Cytochrome P450 2C9) | IC50 (Cytochrome P450 3A4) | Ki (Cytochrome P450 3A4)

OCCN1CCN(CCCN2c3ccccc3Sc3ccc(Cl)cc32)CC1 [PERPHENAZINE]
Not Active: IC50 [1] | IC50 (D(4) dopamine receptor) | IC50 (Melanocortin receptor 5) | IC50 [2]

CN1C[C@H](C(=O)N[C@]2(C)O[C@@]3(O)[C@@H]4CCCN4C(=O)[C@H](Cc4ccccc4)N3C2=O)C[C@@H]2c3cccc4[nH]cc(c34)C[C@H]21 [DIHYDROERGOTAMINE]
Not Active: IC50 [1] | IC50 (D(4) dopamine receptor) | IC50 (Melanocortin receptor 5) | IC50 [2] | IC50 (Cytochrome P450 1A2) | Ki (Cytochrome P450 1A2) | IC50 (Cytochrome P450 2C9) | Ki (Cytochrome P450 2C9)

CC[C@H](C)C(=O)O[C@H]1C[C@@H](C)C=C2C=C[C@H](C)[C@H](CC[C@@H]3C[C@@H](O)CC(=O)O3)[C@H]21 [LOVASTATIN]
Not Active: IC50 [1] | IC50 (D(4) dopamine receptor) | IC50 (Melanocortin receptor 5) | IC50 [2] | IC50 (Cytochrome P450 1A2) | Ki (Cytochrome P450 1A2)

C#C[C@]1(O)CC[C@H]2[C@@H]3CCC4=Cc5oncc5C[C@]4(C)[C@H]3CC[C@@]21C [DANAZOL]
Not Active: IC50 [1] | IC50 (D(4) dopamine receptor) | IC50 (Melanocortin receptor 5) | IC50 [2] | IC50 (Cytochrome P450 1A2) | Ki (Cytochrome P450 1A2) | IC50 (Cytochrome P450 3A4) | Ki (Cytochrome P450 3A4)
